The test system of the experiment is P388 leukemia ip, CD2F1 mice, survival T/C. The experiment is described as follows: NCI In Vivo Anticancer Drug Screen. Data for tumor model P388 Leukemia (intraperitoneal) in CD2F1 (CDF1) mice. Particulars: endpoint: median survival time, higher = longer survival. A digest of the protocol: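 Mice carrying the transplanted tumor received test compound or vehicle. Survival was recorded in each group, and the value is the treated-group measurement divided by that of the vehicle-treated control group.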

Setting [1] is: dose: 50.0 mg/kg/injection, schedule: Q01DX005 (ip), vehicle: Klucel (hydroxypropylcellulose) (HPC).
Where [2] appears, read: dose: 100.0 mg/kg/injection, schedule: Q01DX005 (ip), vehicle: Klucel (hydroxypropylcellulose) (HPC).
Setting [3] is: dose: 200.0 mg/kg/injection, schedule: Q01DX005 (ip), vehicle: Klucel (hydroxypropylcellulose) (HPC).
[4] abbreviates: dose: 50.0 mg/kg/injection, schedule: Q01DX009 (ip), vehicle: saline.
Where [5] appears, read: dose: 25.0 mg/kg/injection, schedule: Q01DX009 (ip), vehicle: saline with Tween-80.
Setting [6] is: dose: 50.0 mg/kg/injection, schedule: Q01DX009 (ip), vehicle: saline with Tween-80.
Setting [7] is: dose: 100.0 mg/kg/injection, schedule: Q01DX009 (ip), vehicle: saline with Tween-80.
Where [8] appears, read: dose: 100.0 mg/kg/injection, schedule: Q01DX009 (ip), vehicle: saline.
[9] abbreviates: dose: 200.0 mg/kg/injection, schedule: Q01DX009 (ip), vehicle: saline with Tween-80.
Where [10] appears, read: dose: 60.0 mg/kg/injection, schedule: Q01DX005 (ip), vehicle: saline with Tween-80.
[11] abbreviates: dose: 120.0 mg/kg/injection, schedule: Q01DX005 (ip), vehicle: saline with Tween-80.
[12] abbreviates: dose: 240.0 mg/kg/injection, schedule: Q01DX005 (ip), vehicle: saline with Tween-80.

“And” between values parts separate entries of the source, which are not always exact repeats. Identical values can stand only once. Toxic doses and inconclusive results are not listed. Square brackets hold non-standard residues; d marks the D form. Peptide text beside a SMILES is read from it. * marks the point of attachment. ξ: configuration not given here. ξAsp(βξ-Me) = CC(C(=O)O)C(N)C(=O)O; X11 = CC(N*)C1NC(=O)C2CCCCN2C1=O; ξAbu(3ξ-NH2) = CC(N)C(N)C(=O)O; X10 = CCC(C)CCC/C=C/CC(=O)*

With `CCN(CC)C1CC(O[C@H]2C[C@](O)(C(C)=O)Cc3c(O)c4c(c(O)c32)C(=O)c2c(OC)cccc2C4=O)OC(C)C1O` (stereo not given in full), the T/C reads like this: (dose: 0.25 mg/kg/injection, schedule: Q01DX009 (ip), vehicle: water) 104 % of control; (dose: 0.5 mg/kg/injection, schedule: Q01DX009 (ip), vehicle: water) 114 % of control; (dose: 4.0 mg/kg/injection, schedule: Q01DX009 (ip), vehicle: water) 174 % of control and 183 % of control; (dose: 6.0 mg/kg/injection, schedule: Q04DX003 (ip), vehicle: water) 117 % of control; (dose: 8.0 mg/kg/injection, schedule: Q01DX009 (ip), vehicle: water) 100 % of control; (dose: 20.0 mg/kg/injection, schedule: Q04DX003 (ip), vehicle: water) 112 % of control. The T/C (dose: 33.3 mg/kg/injection, schedule: Q04DX003 (ip), vehicle: water) was 96 % of control; the T/C (dose: 48.0 mg/kg/injection, schedule: Q04DX003 (ip), vehicle: water) was 124 % of control; the T/C (dose: 96.0 mg/kg/injection, schedule: Q04DX003 (ip), vehicle: water) was 93 % of control.

As for `CC1=NN(c2ccccc2)[As]2ON=C(c3ccc(Cl)cc3)C12` (stereo not given), the T/C by setting is: under setting [1], 102 % of control; under setting [2], 103 % of control; under setting [3], 108 % of control.

Turning to `Cc1ccc(SSc2ccc(C(C)(C)C)cc2)cc1`, the T/C is 97 % of control under setting [1], 102 % of control under setting [2] and 99 % of control under setting [3].

Turning to `C[N+](C)(C)CCC(=O)c1cccc([N+](=O)[O-])c1`, the T/C runs as follows: (dose: 12.5 mg/kg/injection, schedule: Q01DX009 (ip), vehicle: saline) 101 % of control; (dose: 25.0 mg/kg/injection, schedule: Q01DX009 (ip), vehicle: saline) 97 % of control; under setting [4], 108 % of control and 97 % of control.

For the compound `O=C(CC(=O)N1CCN(c2ccccc2)CC1)N1CCN(c2ccccc2)CC1`, the T/C was 95 % of control under setting [5], 97 % of control under setting [6], 98 % of control under setting [7] and 93 % of control under setting [8].

Turning to `CCCSc1nc2c(N)nc(-c3ccccc3)nc2nc1N`, the T/C under setting [6] is 108 % of control, the T/C under setting [7] is 105 % of control and the T/C under setting [9] is 105 % of control.

As to `CC1[N-]CCCN(CCN(C)C)CCC[N-]C(C)C2CCCC1[N-]2.[Ni+3].[O-][Cl+3]([O-])([O-])O` (stereo not given), the T/C (dose: 100.0 mg/kg/injection, schedule: Q01DX001 (ip), vehicle: saline) was 106 % of control.

As to `Cc1c(Br)sc2c1ccc1ccccc12`, the T/C is 101 % of control under setting [6], 100 % of control under setting [7] and 109 % of control under setting [9].

Take `CC(NCCCCNC(C)C(=O)O)C(=O)O` (stereo not given): the T/C was 94 % of control (dose: 50.0 mg/kg/injection, schedule: Q01DX005 (ip), vehicle: saline); 103 % of control (dose: 100.0 mg/kg/injection, schedule: Q01DX005 (ip), vehicle: saline); 102 % of control (dose: 200.0 mg/kg/injection, schedule: Q01DX005 (ip), vehicle: saline).

Turning to `COc1cccc(C2=NC(=C3CCCCC3)C(=O)O2)c1`, the T/C runs as follows: under setting [10], 105 % of control; under setting [11], 105 % of control; under setting [12], 100 % of control.

As for `CC/C(=C(/CC)c1ccc(OCC(=O)N/N=C2\CCC3C4CCc5cc(O)ccc5C4CCC23C)cc1)c1ccc(OCC(=O)N/N=C2/CCC3C4CCc5cc(O)ccc5C4CCC23C)cc1` (stereo not given), the T/C runs as follows: (dose: 3.12 mg/kg/injection, schedule: Q01DX001 (ip), vehicle: Klucel (hydroxypropylcellulose) (HPC)) 100 % of control; (dose: 6.25 mg/kg/injection, schedule: Q01DX001 (ip), vehicle: Klucel (hydroxypropylcellulose) (HPC)) 102 % of control; (dose: 12.5 mg/kg/injection, schedule: Q01DX001 (ip), vehicle: Klucel (hydroxypropylcellulose) (HPC)) 97 % of control; (dose: 50.0 mg/kg/injection, schedule: Q01DX001 (ip), vehicle: Klucel (hydroxypropylcellulose) (HPC)) 91 % of control; (dose: 200.0 mg/kg/injection, schedule: Q01DX001 (ip), vehicle: Klucel (hydroxypropylcellulose) (HPC)) 87 % of control.

Take `c1ccc(-c2[nH]c3cc4c(cc3c2-c2ccccc2)Oc2ccccc2O4)cc1`: the T/C is 116 % of control (dose: 17.5 mg/kg/injection, schedule: Q01DX009 (ip), vehicle: Klucel (hydroxypropylcellulose) (HPC)); 113 % of control (dose: 35.0 mg/kg/injection, schedule: Q01DX009 (ip), vehicle: Klucel (hydroxypropylcellulose) (HPC)); 104 % of control (dose: 70.0 mg/kg/injection, schedule: Q01DX009 (ip), vehicle: Klucel (hydroxypropylcellulose) (HPC)).

For the compound `Cc1ccc(NC(=O)CO)cc1Cl`, the T/C is 103 % of control under setting [4]; 103 % of control under setting [8]; 116 % of control (dose: 200.0 mg/kg/injection, schedule: Q01DX009 (ip), vehicle: saline).

For `SCc1ccccc1CS`, the T/C is 110 % of control and 112 % of control and 114 % of control under setting [6]; 110 % of control and 114 % of control and 121 % of control under setting [7]; 107 % of control under setting [9].

Regarding `Cc1c(N)ccc(O)c1C`, the T/C reads like this: (dose: 12.5 mg/kg/injection, schedule: Q01DX009 (ip), vehicle: saline with Tween-80) 120 % of control; under setting [5], 105 % of control; under setting [6], 100 % of control.

Regarding `Nc1ccc2c(NCCCCCCCCNc3c4ccccc4nc4cc(N)ccc34)c3ccccc3nc2c1`, the T/C (dose: 1.25 mg/kg/injection, schedule: Q01DX009 (ip), vehicle: other) was 158 % of control; the T/C (dose: 2.5 mg/kg/injection, schedule: Q01DX009 (ip), vehicle: other) was 150 % of control; the T/C (dose: 5.0 mg/kg/injection, schedule: Q01DX009 (ip), vehicle: other) was 151 % of control.

As for `CCC(C)CCC/C=C/CC(=O)NC(CC(=O)O)C(=O)NC(C(=O)NC(CC(=O)O)C(=O)NCC(=O)NC(CC(=O)O)C(=O)NCC(=O)NC(C(=O)NC(C(=O)N1CCCC1C(=O)NC(C)C1NC(=O)C2CCCCN2C1=O)C(C)C)C(C)N)C(C)C(=O)O` (stereo not drawn) (X10-D[ξAsp(βξ-Me)]DGDG[ξAbu(3ξ-NH2)]VP-X11; configuration not given here), the T/C (dose: 25.0 mg/kg/injection, schedule: Q01DX009 (ip), vehicle: saline + alcohol) is 103 % of control; the T/C (dose: 50.0 mg/kg/injection, schedule: Q01DX009 (ip), vehicle: saline + alcohol) is 103 % of control; the T/C (dose: 100.0 mg/kg/injection, schedule: Q01DX009 (ip), vehicle: saline + alcohol) is 107 % of control and 88 % of control.

For the compound `CC[N+](C)(CC)CCSC1=Nc2ccccc2N=C(c2ccc(Sc3ccccc3)cc2)C1`, the T/C is 117 % of control (dose: 1.56 mg/kg/injection, schedule: Q01DX009 (ip), vehicle: Klucel (hydroxypropylcellulose) (HPC)); 99 % of control (dose: 3.12 mg/kg/injection, schedule: Q01DX009 (ip), vehicle: Klucel (hydroxypropylcellulose) (HPC)); 106 % of control and 108 % of control (dose: 6.25 mg/kg/injection, schedule: Q01DX009 (ip), vehicle: Klucel (hydroxypropylcellulose) (HPC)).

As to `COC(=O)c1nc(N)nc(C(=O)OC)c1C(=O)c1ccccn1`, the T/C by setting is: (dose: 60.0 mg/kg/injection, schedule: Q01DX005 (ip), vehicle: Klucel (hydroxypropylcellulose) (HPC)) 101 % of control; (dose: 120.0 mg/kg/injection, schedule: Q01DX005 (ip), vehicle: Klucel (hydroxypropylcellulose) (HPC)) 99 % of control.

`CCOC(=O)C1=C(C(=O)c2ccc(OC)cc2)C(c2ccc([N+](=O)[O-])cc2)C(C(=O)c2ccc(OC)cc2)=C(C(=O)OCC)N1`: the T/C was 89 % of control under setting [10], 89 % of control under setting [11] and 93 % of control under setting [12].

`CC(C)(CC#N)c1cc(CC(C)(C)C2(C)OCCO2)no1`: the T/C was 104 % of control (dose: 50.0 mg/kg/injection, schedule: Q01DX005 (ip), vehicle: saline with Tween-80); 98 % of control (dose: 100.0 mg/kg/injection, schedule: Q01DX005 (ip), vehicle: saline with Tween-80); 92 % of control (dose: 200.0 mg/kg/injection, schedule: Q01DX005 (ip), vehicle: saline with Tween-80).

On to `COc1ccc2c(c1)C(=O)OC2`, for which the T/C by setting is: under setting [6], 102 % of control; under setting [7], 101 % of control; under setting [9], 99 % of control.

For `O=C(Cc1ccc(-c2ccccc2)cc1)Nc1ccccn1`, the T/C is 99 % of control under setting [6], 108 % of control under setting [7] and 105 % of control under setting [9].
